Data reported in patent US20230158033A1, “Method of Treating Pemphigus by Administering (R)-2-[3-[4-Amino-3-(2-Fluoro-4-Phenoxy-Phenyl)Pyrazolo[3,4-D]Pyrimidin-1-YL]Piperidine-1-Carbonyl]-4-Methyl-4-[4-(Oxetan-3-YL)Piperazin-1-YL]Pent-2-Enenitrile” (Principia Biopharma Inc., priority 2019, published 2023).
Where “and” joins values, the source holds several entries; their conditions need not be identical. Equal values may be shown once.

Experiments:
[1] = healthy volunteer population (Evans 2013); cited from earlier work
[2] = system: fetal development, male fertility; assay: Preclinical reproductive toxicity studies; format: in vivo
[3] = system: patients with newly diagnosed or relapsing pemphigus; assay: Phase 2 study Part A (400 mg BID up to 600 mg BID, 12-week treatment): clinical activity; format: in vivo, human; settings: for patients who achieved complete remission (CR): n = 24
[4] = system: rats with collagen-induced arthritis; settings: rats with collagen-induced arthritis (Hill R et al., 2015); cited from earlier work
[5] = Plasma concentration of PRN1008, Part A; format: in vivo; settings: human, oral, read-out: plasma levels at 12 hours post-dose (trough point)
[6] = Relative bioavailability study, tablet vs liquid formulation
[7] = system: patients with pemphigus (PV and PF); assay: Interim data as of Jan. 18, 2018 in patients with pemphigus (PV and PF); format: in vivo, human
Procedure: As of Jan. 18, 2018, PRN1008 had been administered to 21 patients with pemphigus (pemphigus vulgaris (PV) and pemphigus foliaceus (PF)), 18 of whom had 4 or more weeks of treatment with […]1008 was well-tolerated in this study. […] Three patients achieved CDA on no CS. Two patients required high-dose CS temporarily during PRN1008 treatment due to worsening of disease activity. Four patients achieved complete remission (CR) on 1 to 20 mg/day of CS, three achieved CR at Week 13 (25%), and one achieved CR at Week 21.

[8] = system: anti-dsg 1 and anti-dsg 3 autoantibody levels; assay: Anti-dsg autoantibody levels by ELISA, Part A; settings: including patients with high autoantibody levels at baseline
Text: PK outcome measures investigated included plasma concentrations of PRN1008 at approximately the time of maximum concentration on Day 1 and at various subsequent times during outpatient dosing.

[9] = system: healthy volunteers; settings: Phase 1, healthy volunteers (Smith PF 2017); cited from earlier work
[10] = system: canines with naturally occurring PF; settings: canines with naturally occurring PF (Murrell DF, 2019); cited from earlier work
[11] = system: patients with pemphigus (Safety Population); assay: Safety (treatment-emergent adverse events), Part A
Procedure: (§1) Specific assessments to evaluate treatment safety included the following: (1) the frequency and type of AEs; (2) clinical laboratory testing; (3) SNAQ appetite questionnaire; and (4) vital signs. Typically, patients remained under observation in the clinic for 2 hours after administration of the first PRN1008 dose and until the PK sample was drawn.
(§2) The primary safety outcome measures were incidence of treatment-emergent AEs (TEAEs), including clinically significant changes in physical examination, laboratory tests, and vital signs.
(§3) Investigators were instructed to report in detail all AEs encountered during the clinical study in the source documents, from the date of participant consent throughout the follow-up visit. Investigators were also instructed to report pre-existing conditions that worsen during a study were instructed as AEs, with the exception of the disease under study as it was expected that there may be variation in pemphigus disease activity intended to be captured in other measurements.
(§4) Investigators were instructed to grade AEs based on the NCI CTCAE, Version 4.0 or higher.
(§5) Investigators were instructed to use their knowledge of the study participant, the circumstances surrounding the event, and an evaluation of any potential alternative causes to determine whether or not an AE is considered to be related to the study drug, indicating “yes” or “no” accordingly.

[12] = system: patients with newly diagnosed or relapsing pemphigus; assay: Phase 2 study Part B (400 mg QD up to 600 mg BID, 24-week treatment): clinical activity; settings: for Median PDAI: 12 at day 1
Procedure: Generally, clinical response is shown by some improvement seen in first 2 weeks with CDA achieved by the Week 5 visit. […] Typically, clinical response and tolerability were assessed at each visit.
PDAI and ABSIS assessments were employed to monitor pemphigus disease activity. […] Photography was used to document skin disease changes where appropriate.
Part B was a multicenter, open-label, single-arm Phase 2 study (NCT02704429) designed to further evaluate the efficacy and safety of PRN1008 in pemphigus patients. Patients received an initial dose of 400 mg PRN1008 once a day (QD) with possible dose adjustment up to 600 mg BID at investigator discretion. Treatment duration was 24 weeks with an additional 4 weeks of follow-up off treatment.

[13] = system: patients with pemphigus; assay: Safety (adverse events), Part B
Procedure: as §1, §2, §3, §4, §5

C=CC(=O)Nc1cccc(Nc2nc(Nc3ccc(OCCOC)cc3)ncc2F)c1 [CC-292]
tolerability [1]: well tolerated

CC(C)(C=C(C#N)C(=O)N1CCC[C@@H](n2nc(-c3ccc(Oc4ccccc4)cc3F)c3c(N)ncnc32)C1)N1CCN(C2COC2)CC1 [PRN1008, (R)-2-[3-[4-amino-3-(2-fluoro-4-phenoxy-phenyl)pyrazolo[3,4-d]pyrimidin-1-yl]piperidine-1-carbonyl]-4-methyl-4-[4-(oxetan-3-yl)piperazin-1-yl]pent-2-enenitrile]
reproductive toxicity [2]: not expected to harm fetal development or male fertility | Efficacy across subgroups [3]: 43-64% | additional patients who achieved CR at Week 13 without CS use [3]: four | patients who achieved CDA at or prior to the Week 5 visit without the use of CS [3]: Three | patients who did not require dose escalation to achieve response [3]: 90% | patients who needed dose escalation beyond the standard 400 mg bid [3]: three | patients who achieved control of disease activity (CDA) ([3]; 400 mg BID (up to 600 mg BID), 2 weeks / study day 15, n = 26): 27% | CDA with low dose CS by Day 29, dosing subgroup ([3]; 400 mg BID subgroup, 12 of 23): 52% | CDA with low dose CS by Day 29, dosing subgroup ([3]; 500 mg BID subgroup, 1 of 1): 100% | CDA with low dose CS by Day 29, dosing subgroup ([3]; 600 mg BID subgroup, 1 of 2): 50% | patients who achieved control of disease activity (CDA) with low dose CS ([3]; 4 weeks / Day 29, CS <= 0.5 mg/kg/day, n = 26 (primary endpoint), 0.5 mg/kg/day): 54% and > 50% | CDA rate in newly diagnosed patients ([3]; 6 of 8): 75% | patients who achieved CR during the study period ([3]; 6 of 26): 23% | patients who achieved complete remission (CR) ([3]; 12 weeks (treatment period), patients that completed the study): 16.7% and 17% | patients who achieved control of disease activity (CDA) with low dose CS ([3]; 12 weeks / Day 85): 73% | CDA rate in relapsing patients ([3]; 13 of 18): 72% | patients who achieved complete remission (CR) ([3]; 24 weeks (12 weeks on, 12 weeks off treatment; follow-up by Day 141)): 25% | PDAI scores on the Day 85 visit ([3]; all of 11 patients with milder disease): ≤ 5 | Mean CS dose after 12 weeks of treatment ([3]; all patients, SD = 10, baseline 14 mg/day (SD = 11)): 12 mg/day | mean CS dose at CR ([3]; dropped from 14 mg/day at baseline): 8 mg/day | additional patients who achieved CR on CS <= 0.5 mg/kg/day by Day 141 ([3]; follow-up period): two | patients who achieved CR on CS doses <= 0.5 mg/kg/day by Day 85 ([3]; four patients of 26): 15% | patients who needed CS rescue > 0.5 mg/kg ([3]; in the 12 weeks off PRN1008): 4 patients | median reduction in PDAI scores ([3]; over 12 weeks of treatment): 70% | mean CS dose at the time CR was achieved ([3]; patients who achieved CR, range 1-20 mg): 8 mg | median CR duration ([3]; post-treatment): 96 days | mean CS dose during CR duration ([3]; post-treatment, range 0.7-20 mg/day): 8 mg/day | CDA rate in patients with a positive anti-dsg 3 antibody ([3]; slightly higher than overall mITT population): 64% | disease symptoms and outcomes [4]: improved disease symptoms and outcomes | concentration at 12 h [5]: 9.5 ng/mL | exposure of the tablet relative to the equal dose of the liquid formulation [6]: ~ 70% | patients who achieved CDA on no CS [7]: Three | patients who achieved CR at Week 21 [7]: one | patients who achieved complete remission (CR) on 1 to 20 mg/day of CS [7]: Four | patients who met the primary endpoint CDA on CS <= 0.5 mg/kg/day by the Week 5 visit ([7]; 11 of 18 patients with efficacy data): 61% | tolerability ([7]; 21 patients with pemphigus): well-tolerated | patients who required high-dose CS temporarily due to worsening of disease activity ([7]; during PRN1008 treatment): Two | patients who achieved CR at Week 13 ([7]; three patients): 25% | median reduction of autoantibody levels [8]: up to 65% | discontinuation due to an adverse event [9]: no participants discontinued treatment due to an adverse event | most commonly reported adverse events [9]: gastrointestinal adverse events, including nausea/vomiting and diarrhea | serious adverse events or deaths [9]: No serious adverse events or deaths were reported | disease symptoms and outcomes [10]: improved disease symptoms and outcomes | AEs commonly associated with marketed BTKi (major hemorrhage, atrial fibrillation, thrombocytopenia/neutropenia) ([11]; Part A): no cases | AEs related to the study drug: headache ([11]; Part A): 11% | AEs related to the study drug: nausea ([11]; Part A): 15% | AEs related to the study drug: upper abdominal pain ([11]; Part A): 11% | patients who experienced Serious AEs (SAE) ([11]; Part A): Three | patients who experienced a TEAE ([11]; Part A Safety Population, 20 of 27): 74% | only treatment related SAE ([11]; Part A, Day 26, patient with type II diabetes): cellulitis (Grade 3) | AEs that were Grade 1 or 2 ([11]; Part A, number of AEs out of all AEs): 94/97 | patients who achieved CDA ([12]; 400 mg QD only, 2 weeks, n = 14 (FIG. 6)): 29% | patients who achieved CDA ([12]; 400 mg QD only, 4 weeks, n = 14 (FIG. 6)): 43% | patients who achieved CDA ([12]; 400 mg QD only, 4 weeks, n = 14 (FIG. 8B, 80% CI)): 50% | patients who achieved CDA ([12]; 400 mg QD only, 12 weeks, n = 14 (FIG. 6)): 50% | patients who achieved CDA ([12]; 400 mg QD only, 12 weeks, n = 14 (FIG. 8B, 80% CI)): 50% | patients who achieved complete remission (CR) ([12]; 400 mg QD only, 12 weeks, n = 14 (FIG. 9B)): 7% | patients who achieved complete remission (CR) ([12]; 400 mg QD only, 24 weeks, n = 14 (FIG. 9B)): 7% | patients who achieved complete remission (CR) ([12]; 400 mg QD only, 28 weeks (24 on, 4 off treatment), n = 14 (FIG. 9B)): 7% | patients who achieved CDA ([12]; 400 mg QD with dose adjustment up to 600 mg BID, 2 weeks, n = 15 (FIG. 7)): 27% | patients who achieved CDA ([12]; 400 mg QD with dose adjustment up to 600 mg BID, 4 weeks, n = 15 (FIG. 7)): 53% | patients who achieved CDA ([12]; 400 mg QD with dose adjustment up to 600 mg BID, 12 weeks, n = 15 (FIG. 7)): 80% | daily corticosteroid usage ([12]; 24 weeks of PRN1008 treatment): decreased | Median PDAI ([12]; at 12 weeks): 4 | patients having reached a PDAI of 1 or 0 ([12]; at 24 weeks, 10 out of 15): 67% | Median PDAI ([12]; at 24 weeks): 1 | reduction in mean PDAI activity score ([12]; by 24 weeks): 79% | reduction in median PDAI activity score ([12]; by 24 weeks): 94% | patients who achieved CDA ([12]; dose adjustment up to 600 mg BID, 4 weeks, n = 15 (FIG. 8A, 80% CI)): 60% | patients who achieved complete remission (CR) ([12]; dose adjustment up to 600 mg BID, 12 weeks (FIG. 9A)): 13% | patients who achieved CDA ([12]; dose adjustment up to 600 mg BID, 12 weeks, n = 15 (FIG. 8A, 80% CI)): 87% | patients who achieved complete remission (CR) ([12]; dose adjustment up to 600 mg BID, 24 weeks (FIG. 9A)): 33% | patients who achieved complete remission (CR) ([12]; dose adjustment up to 600 mg BID, 28 weeks (24 on, 4 off treatment) (FIG. 9A)): 40% | tolerability [13]: well tolerated | severity of treatment-related AEs ([13]; all treatment-related AEs): mild-moderate and transient | Treatment-related AEs with an incidence greater than 10% ([13]; mild to moderate (grade 1 and 2)): nausea, abdominal distension, infection, and oropharyngeal pain | patients who reported a mild related infection ([13]; of 15, grade 1 nasopharyngitis, grade 1 tracheitis): 2 patients
